According to PMC5244364 (2017):

Assays:
[1] = system: BCL2 (DNA, G4) CGGGCGCGGGAGGAATTGGGCGGGAGC; test: fluorescence anisotropy of compound; settings: 100 mM KCl, K+ phosphate; 10 mM potassium phosphate pH 7.0; 10 µM compound titrated with DNA
[2] = system: KRAS (DNA, G4) GGGAGGGAGGGAAGGAGGGAGGGAGGGA; test: fluorescence anisotropy of compound; settings: 100 mM KCl, K+ phosphate; 10 mM potassium phosphate pH 7.0; 10 µM compound titrated with DNA
[3] = system: VEGFA (DNA, G4) GGGGGCGGGCCGGGGGCGGGGTCCCGGCGGGGCGGAG; test: ethidium bromide displacement, fluorescence; settings: 100 mM KCl, K+ phosphate; 10 mM potassium phosphate pH 7.0; 5 µM ethidium bromide displaced, 10 µM DNA
[4] = system: BCL2 (DNA, G4) CGGGCGCGGGAGGAATTGGGCGGGAGC; test: CD melting; settings: 100 mM KCl, K+ phosphate; 10 mM potassium phosphate pH 7.0; 1:2 DNA:compound (10 µM DNA in CD titration); Tm free 57.1
[5] = system: VEGFA (DNA, G4) GGGGGCGGGCCGGGGGCGGGGTCCCGGCGGGGCGGAG; test: fluorescence anisotropy of compound; settings: 100 mM KCl, K+ phosphate; 10 mM potassium phosphate pH 7.0; 10 µM compound titrated with DNA
[6] = system: VEGFA (DNA, G4) GGGGGCGGGCCGGGGGCGGGGTCCCGGCGGGGCGGAG; test: CD melting; settings: 100 mM KCl, K+ phosphate; 10 mM potassium phosphate pH 7.0; 1:2 DNA:compound (10 µM DNA in CD titration); Tm free 67.3
[7] = system: GC rich duplex DNA (DNA, duplex) AGGGTGGGGAGGGT/ACCCTCCCCACCCT; test: fluorescence anisotropy of compound; settings: 100 mM KCl, K+ phosphate; 10 mM potassium phosphate pH 7.0; 10 µM compound, 0–20 µM duplex
[8] = system: BCL2 (DNA, G4) CGGGCGCGGGAGGAATTGGGCGGGAGC; test: UV absorption titration (316 nm); settings: 100 mM KCl, K+ phosphate; 10 mM potassium phosphate pH 7.0; 10 µM compound titrated with 0–20 µM DNA; one-site fit
[9] = system: KRAS (DNA, G4) GGGAGGGAGGGAAGGAGGGAGGGAGGGA; test: ITC; settings: 100 mM KCl, K+ phosphate; 10 mM potassium phosphate pH 7.0, 25 °C; 100 µM DNA injected into 10 µM compound; one set of sites
[10] = system: VEGFA (DNA, G4) GGGGGCGGGCCGGGGGCGGGGTCCCGGCGGGGCGGAG; test: UV absorption titration (316 nm); settings: 100 mM KCl, K+ phosphate; 10 mM potassium phosphate pH 7.0; 10 µM compound titrated with 0–20 µM DNA; one-site fit
[11] = system: VEGFA (DNA, G4) GGGGGCGGGCCGGGGGCGGGGTCCCGGCGGGGCGGAG; test: ITC; settings: 100 mM KCl, K+ phosphate; 10 mM potassium phosphate pH 7.0, 25 °C; 100 µM DNA injected into 10 µM compound; one set of sites
[12] = system: KRAS (DNA, G4) GGGAGGGAGGGAAGGAGGGAGGGAGGGA; test: CD melting; settings: 100 mM KCl, K+ phosphate; 10 mM potassium phosphate pH 7.0; 1:2 DNA:compound (10 µM DNA in CD titration); Tm free 67.5
[13] = system: KRAS (DNA, G4) GGGAGGGAGGGAAGGAGGGAGGGAGGGA; test: UV absorption titration (316 nm); settings: 100 mM KCl, K+ phosphate; 10 mM potassium phosphate pH 7.0; 10 µM compound titrated with 0–20 µM DNA; one-site fit
[14] = system: KRAS (DNA, G4) GGGAGGGAGGGAAGGAGGGAGGGAGGGA; test: ethidium bromide displacement, fluorescence; settings: 100 mM KCl, K+ phosphate; 10 mM potassium phosphate pH 7.0; 5 µM ethidium bromide displaced, 10 µM DNA
[15] = system: BCL2 (DNA, G4) CGGGCGCGGGAGGAATTGGGCGGGAGC; test: ITC; settings: 100 mM KCl, K+ phosphate; 10 mM potassium phosphate pH 7.0, 25 °C; 100 µM DNA injected into 10 µM compound; one set of sites
[16] = system: GC rich duplex DNA (DNA, duplex) AGGGTGGGGAGGGT/ACCCTCCCCACCCT; test: UV absorption titration; settings: 100 mM KCl, K+ phosphate; 10 mM potassium phosphate pH 7.0; 10 µM compound, 0–20 µM duplex; quadruplex affinity 4–16 fold higher
[17] = system: GC rich duplex DNA (DNA, duplex) AGGGTGGGGAGGGT/ACCCTCCCCACCCT; test: ITC; settings: 100 mM KCl, K+ phosphate; 10 mM potassium phosphate pH 7.0, 25 °C; 100 µM duplex injected into 10 µM compound
[18] = system: BCL2 (DNA, G4) CGGGCGCGGGAGGAATTGGGCGGGAGC; test: ethidium bromide displacement, fluorescence; settings: 100 mM KCl, K+ phosphate; 10 mM potassium phosphate pH 7.0; 5 µM ethidium bromide displaced, 10 µM DNA

KD [1]: 3200 nM | KD [2]: 1500 nM | binding [3]: yes | ∆Tm [4]: 16.2 °C | KD [5]: 250 nM | ∆Tm [6]: 3.3 °C | KD [7]: 6140 ± 2000 nM | KD [8]: 1920 ± 700 nM | KD [9]: 870 nM | KD [10]: 510 ± 300 nM | KD [11]: 980 nM | ∆Tm [12]: 4.6 °C | KD [13]: 720 ± 200 nM | binding [14]: yes | KD [15]: 600 nM | KD [16]: 8330 ± 400 nM | KD [17]: 4330 nM | binding [18]: yes
Structure (SMILES): COc1ccc2c(c[n+](C)c3c4cc5c(cc4ccc23)OCO5)c1OC
